Source: patent US9580498B2, “Monoclonal antibody for antagonizing and inhibiting binding of vascular endothelial growth factor to its receptor, and coding sequence” (SUZHOU STAINWEI BIOTECH INC., priority 2012, dated 2017)

Legend:
Assay type in all cases: in vivo
[1] = tested on: human HCT-8 colon cancer; assay: Transplanted human HCT-8 colon cancer in nude mice; conditions: 5 mg/kg i.p. twice a week for 4 weeks; day 30
Text: The establishing method is basically the same as that in Example 10.
Observing the tumor growth of the nude mice inoculated with the human HCT-8 colon cancer and, when the tumor volume is about 50-100 mm^3, screening according to the size of the tumor volume, with the too large tumor and minor tumor not selected.
The above nude mice inoculated with human HCT-8 colon cancer were divided into the following seven groups (8 mice/group) for administration, intraperitoneally injecting twice a week successively for 4 weeks, and ending the test on the 30th day (D30).
(§1) At the end of experiment, tumors were removed after euthanasia, and the tumor weight were measured. The treatment effect was measured by the ratio of tumor size in the testing group (T) versus the control group (C), i.e. T/C %.
After the first treatment, the long and short diameters of the tumor were measured twice a week, and the tumor volume V and the relative tumor volume RTV thereof (Vt/VO) were calculated
At day 30, each animal was euthanized, and its tumor was removed and weighted and the average tumor weight in each group was calculated.

[2] = tested on: human MDA-MB-231 breast cancer; assay: Transplanted human MDA-MB-231 breast cancer in nude mice; conditions: 5 mg/kg i.p. twice a week for 5 weeks; day 36
Text: The tumor model establishment is basically the same as that in Example 10.
(§2) Nude mice were inoculated with human MDA-MB-231 breast cancer. When the tumor volume reached about 50-100 mm^3, a screening was done and those mice bearing tumors too small or too large in size were excluded. The selected mice were then randomly divided into different groups for different doses of drugs
The above nude mice inoculated with human MDA-MB-231 breast cancer were divided into the following five treatment groups (7 mice/group). Antibodies were injected intraperitoneally twice a week for 5 weeks, and ending the test on the 36th day (D36).
as §1
(§3) After the first administration, the long and short diameters of the tumor were measured twice a week, and the tumor volume (V) and the relative tumor volume RTV thereof (Vt/VO) were calculated.
At day 36, each animal was euthanized, and its tumor was removed and weighted and the average tumor weight in each group was calculated.

[3] = tested on: human A673 rhabdomyosarcoma; assay: Transplanted human A673 rhabdomyosarcoma in nude mice; conditions: 5 mg/kg i.p. twice a week for 3 weeks; day 22
Text: The establishment of this tumor method is basically the same as that in Example 10.
as §2, with “A673 rhabdomyosarcoma.” for “MDA-MB-231 breast cancer.”
Dividing the above nude mice inoculated with the human A673 rhabdomyosarcoma into the following six groups (6 mice/group) for administration, intraperitoneally injecting twice a week successively for 3 weeks, and ending the test on the 22nd day (D22).
as §1, §3
At day 22, each animal was euthanized, and its tumor was removed and weighted and the average tumor weight in each group was calculated.

[4] = tested on: human Ls-174-T colon cancer; assay: Transplanted human Ls-174-T colon cancer in nude mice; conditions: 5 mg/kg i.p. twice a week for 4 weeks; day 29
Procedure: Two nude mice were prepared to serve as tumor bearing mice. 1×10^7 of human Ls-174-T colon cancer cells (purchased from Cell Preservation Center of Shanghai Institutes for Biological Sciences, Chinese Academy of Sciences) at the log-growth cycle, or tumor mass in a size of about 1.5 mm^3, were inoculated subcutaneously into the right armpit of these two nude mice. […]
as §1
After the first administration, both the long and short diameters of tumors were recorded twice a week, and tumor volume (V) and the relative tumor volume (RTV) were calculated. The calculation formula for RTV is: RTV=Vt/Vo, where Vt is the tumor volume measured at each time point (day), and Vo is the initial (before administration) tumor volume.
At day 29, each animal was euthanized, and its tumor was removed and weighted and the average tumor weight in each group was calculated.

Row | Molecule | average tumor weight [1] | tumor weight inhibition rate [1] | average tumor weight [2] | tumor weight inhibition rate [2] | average tumor weight [3] | tumor weight inhibition rate [3] | average tumor weight [4] | tumor weight inhibition rate [4]
1 | N.N.[Cl][Pt][Cl] [cisplatin, reference compound] | 1.201 g | 25.29% |  |  |  |  |  | 
2 | Avastin: humanized anti-VEGF monoclonal antibody drug developed and produced by Roche/Genentech [reference compound] |  |  | 0.543 g | 38.99% | 3.323 g | 61.92% | 0.767 g | 74.05%
